Starred links: 1 amine or outer side, 2 acyl side, 3 side chain; linkers in the order of their positions; H or OH if unused. Non-standard residues stand in square brackets, D forms with d. Residues, ends and D or L forms follow the SMILES beside them. ξ: configuration not given here. X1 = Cn1c(=NC(N)=O)ccn(C2SC(C(O)C(N[*:1])C(=O)[*:2])C(O)C2O)c1=O; Orn(N5-OH,N5-Ac) = CC(=O)N(O)CCC[C@H](N)C(=O)O; ξT = CC(O)C(N)C(=O)O; ξA = CC(N)C(=O)O
What was measured:
Experiment in all cases: Hole test, inhibiting areola diameter, DST agar
Type in all cases: cell-based
E. coli 14 = tested on: E. coli 14; design: unit not given here; conditions: medium DST agar
Text: (§1) Activity against the germs listed below is found in vitro, on the basis of the diameter of the inhibiting areola.

E. coli T 7 = tested on: E. coli T 7; design: unit not given here; conditions: medium DST agar
Text: as §1

Prot. 1017 = conditions: 1000 μg/ml, medium DST agar
Text: as §1

Staph. 133 = conditions: 1000 μg/ml, medium DST agar
Text: as §1

| SMILES | Inhibiting areola diameter E. coli 14 (E. coli 14; 10 μg/ml) | Inhibiting areola diameter E. coli 14 (E. coli 14; 100 μg/ml) | Inhibiting areola diameter E. coli T 7 (E. coli T 7; 10 μg/ml) | Inhibiting areola diameter E. coli T 7 (E. coli T 7; 100 μg/ml) | Inhibiting areola diameter E. coli 14 (E. coli 14; 1000 μg/ml) | Inhibiting areola diameter E. coli T 7 (E. coli T 7; 1000 μg/ml) | Inhibiting areola diameter Prot. 1017 (Prot. 1017) | Inhibiting areola diameter Staph. 133 (Staph. 133) |
| --- | --- | --- | --- | --- | --- | --- | --- | --- |
| CC(=O)N(O)CCC[C@H](NC(=O)[C@H](CCCN(O)C(C)=O)NC(=O)[C@@H](N)CCCN(O)C(C)=O)C(=O)NC(C)C(=O)NC(C(=O)O)C(O)C1SC(n2ccc(=NC(N)=O)n(C)c2=O)C(O)C1O (some centres unmarked) [Compound 9] (H-[Orn(N5-OH,N5-Ac)][Orn(N5-OH,N5-Ac)][Orn(N5-OH,N5-Ac)][ξA][X1]-OH) | 30 | 34 | 28 | 34 | – | – | – | – |
| CC(=O)N(O)CCC[C@H](N)C(=O)NC(C(=O)O)C(O)C1SC(n2ccc(=NC(N)=O)n(C)c2=O)C(O)C1O (some centres unmarked) [Compound 11] | 18 | 13 | 13 | 18 | – | – | – | – |
| CC(=O)N(O)CCC[C@H](NC(=O)[C@H](CCCN(O)C(C)=O)NC(=O)[C@@H](N)CCCN(O)C(C)=O)C(=O)NC(C(=O)O)C(O)C1SC(n2ccc(=NC(N)=O)n(C)c2=O)C(O)C1O (some centres unmarked) [Compound 13] | – | – | – | – | 20 | 19 | 20 | – |
| CC(=O)N(O)CCC[C@H](NC(=O)[C@H](CCCN(O)C(C)=O)NC(=O)[C@@H](N)CCCN(O)C(C)=O)C(=O)NC(C(=O)NC(C(=O)O)C(O)C1SC(n2ccc(=NC(N)=O)n(C)c2=O)C(O)C1O)C(C)O (some centres unmarked) [Compound 20] (H-[Orn(N5-OH,N5-Ac)][Orn(N5-OH,N5-Ac)][Orn(N5-OH,N5-Ac)][ξT][X1]-OH) | – | 13 | – | 14 | 14 | 15 | 17 | 25 |
| CC(=O)N(O)CCC[C@H](NC(=O)[C@H](CCCN(O)C(C)=O)NC(=O)[C@@H](N)CCCN(O)C(C)=O)C(=O)NC(C(=O)O)C(O)C1SC(n2ccc(=O)n(C)c2=O)C(O)C1O (some centres unmarked) [Compound 24] | – | – | – | 18 | 18 | – | 18 | – |

— patent US4626525A, “Antibiotics, preparation and use of and intermediates therefor” (Bayer Aktiengesellschaft, priority 1983, dated 1986)
